According to US20130178413A1, “HCV NS3 PROTEASE INHIBITORS” (priority 2010, published 2013):
Like-named read-outs stand apart in the source and are kept apart here.

Key:
[1] = target: NS3/4A protease gt 1b A156V (Hepatitis C virus genotype 1b, UniProt P26663, A1182V); assay: HCV NS3 protease time-resolved fluorescence (TRF) assay, NS3/4A inhibitory activity (Ki), gt 1b A156V mutant; assay type: biochemical, hepatitis C virus (HCV)
Experimental: (§1) The HCV NS3 protease inhibitory activity of the present compounds may be tested using assays known in the art. One such assay is HCV NS3 protease time-resolved fluorescence (TRF) assay as described below and in International Patent Application Publication WO2006/102087. Other examples of such assays are described in e.g., International Patent Application Publication WO2005/046712. HCV NS3 protease inhibitors, such as those described herein have a Ki less than 50 μM, such as less than 10 μM, and less than 100 nM. Ki is determined by an NS3 protease assay. The assay is performed in a final volume of 100 μl in assay buffer containing 50 mM HEPES, pH 7.5, 150 mM NaCl, 15% glycerol, 0.15% TRITON X-100, 10 mM DTT, and 0.1% PEG 8000. NS3 protease is pre-incubated with various concentrations of inhibitors in DMSO for 30 minutes. The reaction is initiated by adding the TRF peptide substrate (final concentration 100 nM). NS3 mediated hydrolysis of the substrate is quenched after 1 hour at room temperature with 100 μl of 500 mM MES, pH 5.5. Product fluorescence is detected using either a VICTOR V2 or FUSION fluorophotometer (Perkin Elmer Life and Analytical Sciences) with excitation at 340 nm and emission at 615 nm with a 400 μs delay. Testing concentrations of different enzyme forms are selected to result in a signal to background ratio (S/B) of 10-30. IC50 values are derived using a standard four-parameter fit to the data. Ki values are derived from IC50 values using the following formula,
(§2) IC50=Ki(1+[S]/KM), Eqn (1),
(§3) where [S] is the concentration of substrate peptide in the reaction and KM is the Michaelis constant. See P. Gallinari et al., 38 BIOCHEM. 5620-32 (1999); P. Gallinari et al., 72 J. VIROL. 6758-69 (1998); M. Taliani et al., 240 ANAL. BIOCHEM. 60-67 (1996).
(§4) One such assay is HCV NS3 protease time-resolved fluorescence (TRF) assay as described below and in Mao et al., Anal Biochem. 373:1-8, 2008 and International Patent Application Publication WO 2006/102087. A NS3 protease assay can be performed, for example, in a final volume of 100 μl assay buffer containing 50 mM HEPES, pH 7.5, 150 mM NaCl, 15% glycerol, 0.15% TRITON X-100, 10 mM DTT, and 0.1% PEG 8000. NS3 and NS4A protease is pre-incubated with various concentrations of inhibitors in DMSO for 30 minutes. The reaction is initiated by adding the TRF peptide substrate (final concentration 100 nM). NS3 mediated hydrolysis of the substrate is quenched after 1 hour at room temperature with 100 μl of 500 mM MES, pH 5.5. Product fluorescence is detected using either a VICTOR V2 or FUSION fluorophotometer (Perkin Elmer Life and Analytical Sciences) with excitation at 340 nm and emission at 615 nm with a 400 μs delay. Testing concentrations of different enzyme forms are selected to result in a signal to background ratio (S/B) of 10-30. IC50 values are derived using a standard four-parameter fit to the data. Ki values are derived from IC50 values using the following formula,
as §3, with “(1996); Mao et al., Analytical Biochemistry 373: 1-8, 2008. Measuring Compound Inhibitory Potency (Replicon EC50 (nM))” for “(1996).”

NS3/4A protease gt 1b = NS3/4A protease gt 1b (Hepatitis C virus genotype 1b, UniProt P26663); assay: HCV NS3 protease time-resolved fluorescence (TRF) assay, NS3/4A inhibitory activity (Ki), gt 1b; assay type: biochemical; conditions: genotype 1b NS3/4A; read-out: Enzyme Activity gt 1b Ki
Experimental: as §1, §2, §3, §4
as §3, with “(1996); Mao et al., Analytical Biochemistry 373: 1-8, 2008. Measuring Compound Inhibitory Potency (Replicon EC50 (nM))” for “(1996).”

gt 1b Replicon = assay: HCV replicon assay, compound inhibitory potency (Replicon EC50); assay type: cell-based; conditions: Hepatitis C virus, GT1B
Experimental: Measurement of inhibition by compounds was performed using the HCV replicon system. Several different replicons encoding different HCV genotypes or mutations were used. In addition, potency measurements were made using different formats of the replicon assay, including different ways of measurements and different plating formats. See Jan M. Vrolijk et al., A replicons-based bioassay for the measurement of interferons in patients with chronic hepatitis C, 110 J. VIROLOGICAL METHODS 201 (2003); Steven S. Carroll et al., Inhibition of Hepatitis C Virus RNA Replication by 2′-Modified Nucleoside Analogs, 278(14) J. BIOLOGICAL CHEMISTRY 11979 (2003). However, the underlying principles are common to all of these determinations, and are outlined below.
Stable neomycin phosphotransferase encoding replicon-harboring cell lines were used, so all cell lines were maintained under G418 selection prior to the assay. In some cases the cell lines encoded a luciferase:Neor fusion and could be assayed either directly by determination of RNA copy number, or indirectly through measurement of the luciferase activity.
To initiate an assay, replicon cells were plated in the presence of a dilution series of test compound in the absence of G418. Typically, the assays were performed in a 96-well plate format for manual operation, or a 384 well plate in an automated assay. Replicon cells and compound were incubated for 24-48 hours, depending on the assay. At the end of the assay, cells are washed free of media and compound and then lysed. For direct quantitation, RNA levels were measured by ^32P-probe hybridization and protection, or in a TAQMAN based assay and normalized to cellular cyclophilin A RNA levels. In some cases, luciferase activity was measured using a conventional luciferase assay. In all cases EC50 determinations were calculated as a percent of a DMSO control by fitting the data to a four parameter fit function.

NS3/4A protease gt 3a = NS3/4A protease gt 3a (Hepatitis C virus genotype 3a, UniProt Q81258); assay: HCV NS3 protease time-resolved fluorescence (TRF) assay, NS3/4A inhibitory activity (Ki), gt 3a; assay type: biochemical; conditions: genotype 3a NS3/4A; read-out: Enzyme Activity gt 3a Ki
Experimental: as §1, §2, §3, §4
as §3, with “(1996); Mao et al., Analytical Biochemistry 373: 1-8, 2008. Measuring Compound Inhibitory Potency (Replicon EC50 (nM))” for “(1996).”

[2] = 10% Fetal Bovine Serum, read-out: gt 1b Replicon EC50 10% FBS
[3] = 50% Normal Human Serum, read-out: gt 1b Replicon EC50 50% NHS

C=C[C@@H]1C[C@]1(NC(=O)[C@@H]1C[C@@H]2CN1C(=O)[C@H](C(C)(C)C)NC(=O)O[C@]1(C)C[C@H]1CCCCCc1nc3ccccc3nc1O2)C(=O)NS(=O)(=O)C1CC1 [Example I-8, (1aR,5S,8S,10R,22aR)-5-tert-butyl-N-{(1R,2S)-1-[(cyclopropylsulfonyl)carbamoyl]-2-ethenylcyclopropyl}-1a-methyl-3,6-dioxo-1,1a,3,4,5,6,9,10,18,19, 20,21,22,22a-tetra decahydro-8H-7,10-methanocyclopropa[18, 19][1,10,3,6]dioxatriaza cyclononadecino[11,12-b]quinoxaline-8-carboxamide]
Ki [1]: 11.5 nM
Ki (NS3/4A protease gt 1b): 0.02 nM
EC50 (gt 1b Replicon; [2]): 2 nM
EC50 (gt 1b Replicon; [3]): 6 nM
Ki (NS3/4A protease gt 3a): 0.5 nM

C=C[C@@H]1C[C@]1(NC(=O)[C@@H]1C[C@@H]2CN1C(=O)[C@H](C(C)(C)C)NC(=O)O[C@]1(C)C[C@H]1CCCCCc1nc3ccc(OC)cc3cc1O2)C(=O)NS(=O)(=O)C1CC1 [Example I-10, (1aR,5S,8S,10R,22aR)-5-tert-butyl-N-{(1R,2S)-1-[(cyclopropylsulfonyl)carbamoyl]-2-ethenylcyclopropyl}-14-methoxy-1a-methyl-3,6-dioxo-1,1a,3,4,5,6,9,10,18,19,20,21,22, 22a-tetradecahydro-8H-7,10-methanocyclo propa[18,19][1,10,3,6] dioxadiazacyclonona decino[12,11-b] quinoline-8-carboxamide]
Ki [1]: 4.2 nM
Ki (NS3/4A protease gt 1b): 0.02 nM
EC50 (gt 1b Replicon; [2]): 4 nM
EC50 (gt 1b Replicon; [3]): 10 nM
Ki (NS3/4A protease gt 3a): 0.2 nM

C=C[C@@H]1C[C@]1(NC(=O)[C@@H]1C[C@@H]2CN1C(=O)[C@H](C1CCCC1)NC(=O)O[C@]1(C)C[C@H]1CCC/C=C/c1cccc3c1CN(C3)C(=O)O2)C(=O)NS(=O)(=O)C1CC1 [Example I-12, (1aR,5S,8S,10R,19E,23aR)-5-cyclopentyl-N-{(1R,2S)-1-[(cyclopropylsulfonyl)carbamoyl]-2-ethenylcyclopropyl}-1a-methyl-3,6,12-trioxo-1a,3,4,5,6,9,10, 14,21,22,23,23a-dodecahydro-1H,8H-7,10:13,15-dimethano cyclopropa[n][4,13,2,8, 11]benzodioxatriaza cyclodocosine-8(12H)-carboxamide]
Ki [1]: 1.4 nM
Ki (NS3/4A protease gt 1b): 0.02 nM
EC50 (gt 1b Replicon; [2]): 5 nM
EC50 (gt 1b Replicon; [3]): 19 nM
Ki (NS3/4A protease gt 3a): 12 nM

C=C[C@@H]1C[C@]1(NC(=O)[C@@H]1C[C@@H]2CN1C(=O)[C@H](C1CCCC1)NC(=O)O[C@]1(C)C[C@H]1CCCCCc1cccc3c1CN(C3)C(=O)O2)C(=O)NS(=O)(=O)C1CC1 [Example I-13, (1aR,5S,8S,10R,23aR)-5-cyclopentyl-N-{(1R,2S)-1-[(cyclopropylsulfonyl)carbamoyl]-2-ethenylcyclopropyl}-1a-methyl-3,6,12-trioxo-1a,3,4,5,6,9,10, 14,19,20,21,22,23,23a-tetradecahydro-1H,8H-7,10:13,15-dimethano cyclopropa[n][4,13,2,8, 11]benzodioxatriaza cyclodocosine-8(12H)-carboxamide]
Ki [1]: 0.4 nM
Ki (NS3/4A protease gt 1b): 0.02 nM
EC50 (gt 1b Replicon; [2]): 4 nM
EC50 (gt 1b Replicon; [3]): 16 nM
Ki (NS3/4A protease gt 3a): 32.9 nM

C=C[C@@H]1C[C@]1(NC(=O)[C@@H]1C[C@@H]2CN1C(=O)[C@H](C1CCCC1)NC(=O)O[C@]1(C)CCC[C@H]1CCCCCc1c(nc3ccccc3c1O)O2)C(=O)NS(=O)(=O)C1CC1 [Example I-16, (3aR,7S,10S,12R,24aR)-7-cyclopentyl-N-{(1R,2S)-1-[(cyclopropylsulfonyl)carbamoyl]-2-ethenylcyclopropyl}-19-hydroxy-3a-methyl-5,8-dioxo-1,2,3,3a,5,6,7,8,11,12,20,21,22,23,24, 24a-hexadecahydro-10H-9,12-methano cyclopenta[18,19][1,10,3,6]dioxadiazacyclo nonadecino[11,12-b]quinoline-10-carboxamide]
Ki [1]: 2.4 nM
Ki (NS3/4A protease gt 1b): 0.02 nM
EC50 (gt 1b Replicon; [2]): 9 nM
EC50 (gt 1b Replicon; [3]): 27 nM
Ki (NS3/4A protease gt 3a): 1.4 nM

CC[C@@H]1C[C@]1(NC(=O)[C@@H]1C[C@@H]2CN1C(=O)[C@H](C1CCCC1)NC(=O)O[C@]1(C)CCC[C@H]1CCCCCc1c(nc3ccccc3c1O)O2)C(=O)NS(=O)(=O)C1CC1 [Example I-18, (3aR,7S,10S,12R,24aR)-7-cyclopentyl-N-{(1R,2R)-1-[(cyclopropylsulfonyl)carbamoyl]-2-ethylcyclopropyl}-19-hydroxy-3a-methyl-5,8-dioxo-1,2,3,3a,5,6,7,8,11,12,20,21,22,23,24, 24a-hexadecahydro-10H-9,12-methano cyclopenta[18,19][1,10,3,6]dioxadiazacyclo nonadecino[11,12-b]quinoline-10-carboxamide]
Ki [1]: 42.5 nM
Ki (NS3/4A protease gt 1b): 0.07 nM
EC50 (gt 1b Replicon; [2]): 30 nM
EC50 (gt 1b Replicon; [3]): 35 nM
Ki (NS3/4A protease gt 3a): 9.2 nM

C=C[C@@H]1C[C@]1(NC(=O)[C@@H]1C[C@@H]2CN1C(=O)[C@H](C1CCCC1)NC(=O)O[C@]1(C)C[C@H]1CC/C=C/Cn1c(nc3cc(C)ccc3c1=O)O2)C(=O)NS(=O)(=O)C1CC1 [Example I-23, (1aR,5S,8S,10R,20E,23aR)-5-cyclopentyl-N-{(1R,2S)-1-[(cyclopropylsulfonyl)carbamoyl]-2-ethenylcyclopropyl}-1a,14-dimethyl-3,6,17-trioxo-1,1a,3,4,5,6,9,10,19,22,23,23a-dodecahydro-8H,17H-7,10-methano cyclopropa[18,19][1, 10,3,6,12]dioxatriaza cyclononadecino[11,12-b]quinazoline-8-carboxamide]
Ki [1]: 1.2 nM
Ki (NS3/4A protease gt 1b): 0.02 nM
EC50 (gt 1b Replicon; [2]): 2 nM
EC50 (gt 1b Replicon; [3]): 6 nM
Ki (NS3/4A protease gt 3a): 1 nM
